The experiment deals with ECHOR (Echinochloa oryzoides, early watergrass). Briefly: In-water applied weed control, transplanted paddy rice, greenhouse (Example II). In kind it is in vivo, Echinochloa oryzoides (Ard.) Fritsch. Summed up:
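Transplanted rice and weeds at first to fourth true leaf stage in flooded mud pots (2.5–3 cm water), greenhouse ~29/26 °C day/night. Herbicides alone or mixed, in 1.25% crop oil concentrate (acetone for technical material), injected into the flood; visual 0–100% injury after ~3 weeks, expected mixture effects by Colby.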

Here are results for 5 molecules from patent US8871681B2, “Herbicidal compositions comprising 4-amino-3-chloro-5-fluoro-6-(4-chloro-2-fluoro-3-methoxyphenyl) pyridine-2-carboxylic acid or a derivative thereof and certain sulfonylureas” (Dow AgroSciences LLC, priority 2012, dated 2014).

Consider `COC(=O)c1ccccc1CS(=O)(=O)NC(=O)Nc1nc(OC)cc(OC)n1` [Bensulfuron-methyl, methyl 2-[[[[[(4,6-dimethoxy-2-pyrimidinyl)amino]carbonyl]amino]sulfonyl]methyl]benzoate, reference compound], for which the “Visual Weed Control (%) - 25 DAA ECHOR Obs” value is reported as 80% (Table 31, 35 gai/ha alone) and 85% (Table 31, 70 gai/ha alone). For the same molecule, the “Visual Weed Control (%) - 19 DAA ECHOR Obs” value (Table 31, 70 gai/ha alone) came to 78%. The “Visual Weed Control (%) - 21 DAA ECHOR Obs” value is 0% (Table 32, 35 gai/ha alone) and 15% (Table 32, 70 gai/ha alone).

For `COc1c(Cl)ccc(-c2nc(C(=O)O)c(Cl)c(N)c2F)c1F` [Compound A Acid, 4-amino-3-chloro-5-fluoro-6-(4-chloro-2-fluoro-3-methoxy-phenyl)pyridine-2-carboxylic acid], the “Visual Weed Control (%) - 20 DAA ECHOR Obs” value (Table 28, 8.75 gae/ha alone) was 20%; the “Visual Weed Control (%) - 20 DAA ECHOR Obs” value (Table 28, 17.5 gae/ha alone) is recorded as 30%; the “Visual Weed Control (%) - 20 DAA ECHOR Obs” value (Table 28, 35 gae/ha alone) was 40%; the “Visual Weed Control (%) - 20 DAA ECHOR Obs” value (Table 28, second set, 35 gae/ha alone) stood at 25%; the “Visual Weed Control (%) - 20 DAA ECHOR Obs” value (Table 28, second set, 70 gae/ha alone) is recorded as 35%; the “Visual Weed Control (%) - 20 DAA ECHOR Obs” value (Table 43, 10.6 gae/ha alone) was determined as 10%. Besides, the “Visual Weed Control (%) - 20 DAA ECHOR Obs” value reads like this: (Table 43, 21.2 gae/ha alone) 30%; (Table 43, 42.4 gae/ha alone) 45%. Moreover, the “Visual Weed Control (%) - 25 DAA ECHOR Obs” value (Table 31, 8.75 gae/ha alone) stood at 0%; the “Visual Weed Control (%) - 25 DAA ECHOR Obs” value (Table 31, 17.5 gae/ha alone) was determined as 0%; the “Visual Weed Control (%) - 25 DAA ECHOR Obs” value (Table 31, 35 gae/ha alone) was 40%. In addition, the “Visual Weed Control (%) - 19 DAA ECHOR Obs” value (Table 31, 42 gae/ha alone) was 15%. In addition, the “Visual Weed Control (%) - 22 DAA ECHOR Obs” value reads like this: (Table 34, 10.6 gae/ha alone) 15%; (Table 34, 21.2 gae/ha alone) 30%; (Table 34, 42.4 gae/ha alone) 40%. For the same molecule, the “Visual Weed Control (%) - 21 DAA ECHOR Obs” value amounted to 10% (Table 36, 8.75 gae/ha alone); 10% (Table 36, 17.5 gae/ha alone); 15% (Table 36, 35 gae/ha alone); 0% (Table 41, 10.6 gae/ha alone); 15% (Table 41, 21.2 gae/ha alone); 15% (Table 41, 42.4 gae/ha alone).

Regarding `COc1c(Cl)ccc(-c2nc(C(=O)OCc3ccccc3)c(Cl)c(N)c2F)c1F` [Compound A Benzyl Ester], the “Visual Weed Control (%) - 20 DAA ECHOR Obs” value is 10% (Table 29, 4.38 gae/ha alone); 20% (Table 29, 8.75 gae/ha alone); 30% (Table 29, 17.5 gae/ha alone); 53% (Table 29, 35 gae/ha alone); 73% (Table 29, 70 gae/ha alone); 20% (Table 44, 8.75 gae/ha alone). Also, where the note is “Table 44, 17.5 gae/ha alone”, the “Visual Weed Control (%) - 20 DAA ECHOR Obs” value worked out at 30%. Moreover, the “Visual Weed Control (%) - 21 DAA ECHOR Obs” value is on record as 8% (Table 32, 8 gae/ha alone); 5% (Table 32, 16 gae/ha alone); 25% (Table 37, 8.75 gae/ha alone); 25% (Table 37, 17.5 gae/ha alone); 15% (Table 42, 4.38 gae/ha alone); 15% (Table 42, 8.75 gae/ha alone). Further, the “Visual Weed Control (%) - 21 DAA ECHOR Obs” value by setting is: (Table 42, 17.5 gae/ha alone) 20%; (Table 46, 4.38 gae/ha alone) 0%; (Table 46, 8.75 gae/ha alone) 10%; (Table 46, 17.5 gae/ha alone) 60%. Where the note is “Table 35, 17.5 gae/ha alone”, the “Visual Weed Control (%) - 22 DAA ECHOR Obs” value came out at 30%.

Take `COCC(=O)OC(c1ncccc1S(=O)(=O)NC(=O)Nc1nc(OC)cc(OC)n1)C(C)F` (stereo not shown) [Flucetosulfuron, 1-[3-[[[[(4,6-dimethoxy-2-pyrimidinyl)amino]carbonyl]amino]sulfonyl]-2-pyridinyl]-2-fluoropropyl 2-methoxyacetate]: the “Visual Weed Control (%) - 21 DAA ECHOR Obs” value reads like this: (Table 36, 0.1 gai/ha alone) 0%; (Table 36, 0.2 gai/ha alone) 0%; (Table 37, 0.1 gai/ha alone) 0%; (Table 37, 0.2 gai/ha alone) 0%.

Take `COC(=O)c1ccccc1S(=O)(=O)NC(=O)Nc1nc(C)nc(OC)n1` [Metsulfuron-methyl, methyl 2-[[[[(4-methoxy-6-methyl-1,3,5-triazin-2-yl)amino]carbonyl]amino]sulfonyl]benzoate, reference compound]: the “Visual Weed Control (%) - 21 DAA ECHOR Obs” value runs as follows: (Table 41, 7.5 gai/ha alone) 50%; (Table 41, 15 gai/ha alone) 65%; (Table 42, 7.5 gai/ha alone) 50%; (Table 42, 15 gai/ha alone) 65%.
